The assay deals with AMPA receptor.
The mark [1] stands for this setting: Table 2, suppression of AMPA-induced calcium influx into nerve cells.
[2] abbreviates: Table 1, primary culture of rat embryo cerebral cortex nerve cells, 2 μM AMPA, 1 μM MK-801.
Where [3] appears, read: Table 3, primary culture of rat embryo cerebral cortex nerve cells, 2 μM AMPA, 1 μM MK-801.

Read-outs that look alike come from different tables or passages of the source.

One may read the IC50 as the concentration at which inhibition is half-maximal.
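Further: primary rat embryonic cortical neurons grown on an astrocyte layer in 96-well plates, used after at least 8 to 10 days in culture, Fura2-AM fluorescence ratio at 340/380 nm excitation.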

Method: Cerebral cortex was cut out from the brain of rat of gestational 18 days and treated with trypsin and DNase to disperse the cells. The cells were flown by MEM containing 10% of serum, sown in a culture bottle and astrocytes were proliferated. The astrocytes were re-dispersed by trypsin and sown in a 96-well plate. After incubation for one week, it was confirmed that the astrocytes covered all over the bottom and then the nerve cells of cerebral cortex which was dispersed by the above method were sown thereupon. After incubation for 24 hours, the medium was changed, the incubation was carried out for one week and, after that, the medium was changed to that containing 1 μM of MK-801. Nerve cells which were incubated for not shorter than 8 to 10 days were used.
Calcium influx into the cells was measured using Fura2-AM which was a calcium-sensitive fluorescent dye. It was treated in a medium containing Fura2-AM for 1 hour, incorporated into the cells, exchanged to a Tyrode solution containing 1 μM MK-801 and stimulation was carried out using 2 μM AMPA. Change in the amount of calcium flown into the cells were measured as the change in the fluorescent intensity at the exciting wave length of 340/380 nm.

Take `N#Cc1ccccc1-c1cc(-c2ccncn2)cn(-c2ccccc2)c1=O` [Example 202, 3-(2-Cyanophenyl)-1-phenyl-5-(4-pyrimidinyl)-1,2-dihydropyridin-2-one]: under setting [1], the IC50 came to 700 nM.

As for `N#Cc1ccccc1-c1cc(-c2ccccn2)cn(-c2cccc(C(F)(F)F)c2)c1=O` [Example 104, 3-(2-Cyanophenyl)-5-(2-pyridyl)-1-(3-trifluoromethylphenyl)-1,2-dihydropyridin-2-one], 200 nM corresponded to half-maximal inhibition under setting [2] (IC50).

Turning to `O=c1c(-c2cccc3ccccc23)cc(-c2ccccn2)cn1-c1ccccc1` [Example 280, 3-(1-Naphthyl)-5-(2-pyridyl)-1-phenyl-1,2-dihydropyridin-2-one], under setting [1], the IC50 was 1300 nM.

Turning to `N#Cc1ccccc1-c1cc(-c2ccccn2)cn(COCc2ccccc2)c1=O` [Example 316, 1-Benzyloxymethyl-3-(2-cyanophenyl)-5-(2-pyridyl)-1,2-dihydropyridin-2-one], the IC50 under setting [3] came out at 2100 nM.

Regarding `O=c1c(-c2ccc(O)cc2)cc(-c2ccccn2)cn1-c1ccccc1` [Example 238, 3-(4-Hydroxyphenyl)-1-phenyl-5-(2-pyridyl)-1,2-dihydropyridin-2-one], the IC50 under setting [1] was 600 nM.

The compound `O=c1c(-c2nc3cc(Cl)c(Cl)cc3[nH]2)cc(-c2ccccn2)cn1-c1ccccc1` [Example 354, 3-(5.6-Dichloro-1H-benzimidazol-2-yl)-5-(2-pyridyl)-1-phenyl-1,2-dihydropyridin-2-one] had an IC50 under setting [3] of 1500 nM.

The compound `N#Cc1ccccc1-c1cc(-c2ccccn2)cn(-c2cccc(O)c2)c1=O` [Example 315, 3-(2-Cyanophenyl)-1-(3-hydroxyphenyl)-5-(2-pyridyl)-1,2-dihydropyridin-2-one] yielded an IC50 under setting [3] of 80 nM.

For `N#Cc1ccccc1-c1cc(-c2ccccn2)cn(-c2ccccn2)c1=O` [Example 159, 3-(2-Cyanophenyl)-1-(2-pyridyl)-5-(2-pyridyl)-1,2-dihydropyridin-2-one], under setting [1], the IC50 was 1600 nM.

As for `N#Cc1cccc(-c2cc(-c3ccccn3)cn(-c3ccccc3)c2=O)c1` [Example 63, 3-(3-Cyanophenyl)-5-(2-pyridyl)-1-phenyl-1,2-dihydropyridin-2-one], the IC50 under setting [2] was found to be 1100 nM.

As to `O=c1c(-c2cccc(O)n2)cc(-c2ccccn2)cn1-c1ccccc1` [Example 165, 3-(2-Hydroxypyridin-6-yl)-1-phenyl-5-(2-pyridyl)-1,2-dihydropyridin-2-one], under setting [1], the IC50 was determined as 400 nM.

`N#Cc1ccccc1-c1cc(-c2cccc(N3CCOCC3)n2)cn(-c2ccccc2)c1=O` [Example 302, 3-(2-Cyanophenyl)-5-(2-morpholinopyridin-6-yl)-1-phenyl-1,2-dihydropyridin-2-one] had an IC50 under setting [3] of 300 nM.

On to `CN(C)CCOc1cccc(-c2cc(-c3ccccn3)cn(-c3ccccc3)c2=O)c1` [Example 247, 3-[3-(Dimethylaminoethoxy)phenyl]-1-phenyl-5-(2-pyridyl)-1,2-dihydropyridin-2-one], for which, under setting [1], the IC50 amounted to 3600 nM.

`N#Cc1ccccc1-c1cc(-c2ccccc2C#N)c(=O)n(-c2ccccc2)c1` [Example 36, 3-(2-Cyanophenyl)-5-(2-cyanophenyl)-1-phenyl-1,2-dihydropyridin-2-one] returned an IC50 under setting [2] of 1100 nM.

For the compound `N#Cc1ccccc1-c1cc(-c2ccccn2)cn(-c2ccccc2C#N)c1=O` [Example 110, 3-(2-Cyanophenyl)-5-(2-pyridyl)-1-(2-cyanophenyl)-1,2-dihydropyridin-2-one], the midpoint of inhibition under setting [2], the IC50, lay at 2000 nM.

`O=c1c(-c2ccccn2)cc(-c2ccccn2)cn1-c1ccccc1` [Example 62, 3-(2-Pyridyl)-5-(2-pyridyl)-1-phenyl-1,2-dihydropyridin-2-one]: inhibition under setting [2] was half-maximal at 3100 nM (IC50).

With `N#Cc1ccccc1-c1cc(-c2ncccn2)cn(-c2cccc(N)c2)c1=O` [Example 218, 1-(3-Aminophenyl)-3-(2-cyanophenyl)-5-(2-pyrimidinyl)-1,2-dihydropyridin-2-one], under setting [1], the IC50 came out at 100 nM.

Consider `COc1ccccc1-c1cc(-c2ccccn2)cn(-c2ccc(F)cc2)c1=O` [Example 56, 3-(2-Methoxyphenyl)-5-(2-pyridyl)-1-(4-fluorophenyl)-1,2-dihydropyridin-2-one], for which, under setting [2], it took 3200 nM to reach half-maximal inhibition (IC50).

`Cc1ccccc1-c1cc(-c2ccccn2)cn(-c2ccccc2)c1=O` [Example 60, 3-(2-Tolyl)-5-(2-pyridyl)-1-phenyl-1,2-dihydropyridin-2-one] came in with an IC50 under setting [2] of 1700 nM.

Turning to `N#Cc1ccccc1-c1cc(-c2cccc[n+]2[O-])cn(-c2ccccc2)c1=O` [Example 173, 3-(2-Cyanophenyl)-5-(2-pyridyl 1-oxide)-1-phenyl-1,2-dihydropyridin-2-one], under setting [1], the IC50 came to 4200 nM.

In the case of `N#Cc1ccccc1-c1cc(-c2ncccn2)cn(-c2cccc([N+](=O)[O-])c2)c1=O` [Example 266, 3-(2-Cyanophenyl)-1-(3-nitrophenyl)-5-(2-pyrimidinyl)-1,2-dihydropyridin-2-one], under setting [1], the IC50 turned out to be 100 nM.

For `O=C(c1cc(-c2ccccc2)c(=O)n(-c2ccccc2)c1)c1ccccn1` [Example 395, 5-(2-Pyridinecarbonyl)-1-phenyl-3-phenyl-1,2-dihydropyridin-2-one], under setting [3], half-maximal inhibition (IC50) was put at 900 nM.

For `Cc1cccc(-c2cc(-c3ccccc3C#N)c(=O)n(-c3ccccc3)c2)n1` [Example 195, 3-(2-Cyanophenyl)-5-(6-methylpyridin-2-yl)-1-phenyl-1,2-dihydropyridin-2-one], the IC50 under setting [1] is 200 nM.

For `O=c1c(-c2cccc(F)c2)cc(-c2ccccn2)cn1-c1ccccc1` [Example 72, 3-(3-Fluorophenyl)-5-(2-pyridyl)-1-phenyl-1,2-dihydropyridin-2-one], the midpoint of inhibition under setting [2], the IC50, lay at 700 nM.

Consider `N#Cc1ccccc1Nc1cc(-c2ccccn2)cn(-c2ccccc2)c1=O` [Example 321, 3-(2-Cyanophenylamino)-5-(2-pyridyl)-1-phenyl-1,2-dihydropyridin-2-one], for which the IC50 under setting [3] worked out at 4000 nM.

In the case of `N#Cc1cccc(-c2cc(-c3ccccc3C#N)c(=O)n(-c3ccccc3)c2)n1` [Example 236, 3-(2-Cyanophenyl)-5-(2-cyanopyridin-6-yl)-1-phenyl-1,2-dihydropyridin-2-one], the IC50 under setting [1] worked out at 600 nM.

Under setting [2], `COc1ccc(-c2cc(-c3ccccn3)cn(-c3ccccc3)c2=O)cc1` [Example 70, 3-(4-Methoxyphenyl)-5-(2-pyridyl)-1-phenyl-1,2-dihydropyridin-2-one] displayed an IC50 of 3100 nM.

Under setting [2], `COc1ccc(-n2cc(-c3ccccn3)cc(-c3ccccc3Cl)c2=O)cc1` [Example 17, 3-(2-Chlorophenyl)-5-(2-pyridyl)-1-(4-methoxyphenyl)-1,2-dihydropyridin-2-one] yielded an IC50 of 700 nM.

Under setting [2], `COc1ncc(-c2ccccn2)cc1-c1ccccc1C#N` [Example 5, 3-(2-Cyanophenyl)-5-(2-pyridyl)-2-methoxypyridine] gave an IC50 of 600 nM.

In turn, `COCC1CN(c2cccc(-n3cc(-c4ccccn4)cc(-c4ccccc4C#N)c3=O)c2)C(=O)O1` (centres unmarked) [Example 13, 3-(2-Cyanophenyl)-5-(2-pyridyl)-1-[3-(5-methoxymethyl-2-oxazolidinon-3-yl)-phenyl]-1,2-dihydropyridin-2-one] gave an IC50 under setting [2] of 200 nM.

Turning to `CC(=O)Nc1cccc(-c2cc(-c3ccccn3)cn(-c3ccccc3)c2=O)c1` [Example 232, 3-[3-(Acetylamino)phenyl]-1-phenyl-5-(2-pyridyl)-1,2-dihydropyridin-2-one], the IC50 under setting [1] was 4300 nM.

Take `N#Cc1ccccc1-c1cc(-c2ccccn2)cn(-c2cccc(OCCN3CCCCC3)c2)c1=O` [Example 240, 3-(2-Cyanophenyl)-1-[3-(piperidinoethoxy)phenyl]-5-(2-pyridyl)-1,2-dihydropyridin-2-one]: the IC50 under setting [1] came out at 100 nM.

Compound `CSc1ccc(-n2cc(-c3ccccn3)cc(-c3ccccc3C#N)c2=O)cc1` [Example 26, 3-(2-Cyanophenyl)-5-(2-pyridyl)-1-(4-methylthiophenyl)-1,2-dihydropyridin-2-one] showed an IC50 under setting [2] of 20 nM.

Compound `Cc1cccc(-n2cc(-c3ccccn3)cc(-c3ccccc3C#N)c2=O)c1` [Example 103, 3-(2-Cyanophenyl)-5-(2-pyridyl)-1-(3-tolyl)-1,2-dihydropyridin-2-one] came in with an IC50 under setting [2] of 30 nM.

Consider `N#Cc1ccccc1-c1cc(C2=COCCO2)cn(-c2ccccc2)c1=O` [Example 209, 3-(2-Cyanophenyl)-5-(5.6-dihydro-1.4-dioxin-2-yl)-1-phenyl-1,2-dihydropyridin-2-one], for which the IC50 under setting [1] is 7000 nM.

On to `Nc1ccc(-c2cc(-c3ccccn3)cn(-c3ccccc3)c2=O)cc1` [Example 221, 3-(4-Aminophenyl)-1-phenyl-5-(2-pyridyl)-1,2-dihydropyridin-2-one], for which the IC50 under setting [1] turned out to be 7100 nM.

The compound `N#Cc1ccccc1-c1cc(-c2ccccn2)cn(-c2cccc(F)c2)c1=O` [Example 92, 3-(2-Cyanophenyl)-5-(2-pyridyl)-1-(3-fluorophenyl)-1,2-dihydropyridin-2-one] displayed an IC50 under setting [2] of 50 nM.

Take `N#Cc1ccccc1-c1cc(-c2ccc(N)cn2)cn(-c2ccccc2)c1=O` [Example 217, 5-(5-Aminopyridin-2-yl)-3-(2-cyanophenyl)-1-phenyl-1,2-dihydropyridin-2-one]: the IC50 under setting [1] turned out to be 1300 nM.

As to `CSc1ccc(-n2cc(-c3ccccn3)cc(-c3cccnc3F)c2=O)cc1` [Example 84, 3-(2-Fluoro-3-pyridyl)-5-(2-pyridyl)-1-(4-methylthiophenyl)-1,2-dihydropyridin-2-one], the IC50 under setting [2] stood at 900 nM.

For the compound `N#Cc1ccccc1-c1cc(-c2cccs2)cn(-c2ccccc2)c1=O` [Example 46, 3-(2-Cyanophenyl)-5-(thiophen-2-yl)-1-phenyl-1,2-dihydropyridin-2-one], it took 400 nM to reach half-maximal inhibition under setting [2] (IC50).

`N#CCc1cccc(-n2cc(-c3ccccn3)cc(-c3ccccc3C#N)c2=O)c1` [Example 22, 3-(2-Cyanophenyl)-5-(2-pyridyl)-1-(3-cyanomethylphenyl)-1,2-dihydropyridin-2-one] showed an IC50 under setting [2] of 60 nM.

For `CCS(=O)(=O)c1ccc(-n2cc(-c3ccccn3)cc(-c3ccccc3C#N)c2=O)cn1` [Example 152, 3-(2-Cyanophenyl)-5-(2-pyridyl)-1-(2-ethylsulfonylpyridin-5-yl)-1,2-dihydropyridin-2-one], under setting [1], the IC50 came to 4000 nM.
